In patent publication US6004967A, “Psoriasis treatment with quinazoline compounds” (priority 1997, dated 1999):

Columns and labels:
[1] = system: NIH 3T3 C7 cells engineered to express EGF-R (3T3-EGFR); assay: 3T3 cell growth assay, EGF-R C7 cells (3T3-EGFR); assay type: cell-based; conditions: Mus musculus, NIH3T3, 96 h, read-out: 3T3-EGFR IC50
Procedure: The efficacy of the above identified compounds in inhibiting or reducing EGF-R stimulated proliferation is measured by the 3T3 cell growth assay. The 3T3 growth assay was carried out as follows:
EGF-RC7 (NIH 3T3 C7 cells engineered to express EGF-R) and NIH 3T3C7 cells (as the control) were used for this assay. NIH3T3C7 cells were seeded at 2500 cells/well, […] in 10% CS+2 mM Glutamine/DMEM, in a 96 well plate; EGF-RC7 cells were seeded at 6000 cells/well, 100 μl/well in 2% FBS+2 mM Glutamine/DMEM, in a 96 well plate. Cells were incubated at 37° C., 5% CO2 overnight to allow for cell attachment to the plate.
A quinazoline compound was added to the cells at day 2. The compound was prepared in the appropriate growth medium (10% CS+2 mM glutamine in DMEM for NIH3T3C7 cells; 2% FBS+2 mM Glutamine in DMEM for EGF-RC7 cells) in a 96 well plate, and serially diluted. A total of 100 μl/well medium of the diluted compounds was added into the cells. The total volume of each well was 200 μl.
After the cells were treated with the compound for 4 days, the cells were washed with PBS and fixed with 200 μl/well ice-cold […] for one hour at 0-5° C.
Remove TCA and rinse wells 5 times with deionized water. Dry plates upside down with paper towels. Stain cells with 0.4% SRB at 100 μl/well for 10 minutes.
Pour off SRB and rinse plate 5 times with 1% acetic acid. Dry plate completely.
Solubilize the dye with 10 mM Tris-base at 100 μl/well for 10 minutes on a shaker.
Read the plate at dual wavelengths at 570 nm and 630 nm on Dynatech Elisa plate reader.

[2] = system: 3T3-EGFR cells; assay: EGF-driven cell cycle progression (propidium iodide, FACS); assay type: cell-based, mouse; conditions: 20 hours
Procedure: (§1) In vitro functional studies. […] Cell lines examined in receptor phosphorylation ELISA were 3T3-EGFR, 3T3-EGFR/Her-2, 3T3-PDGF-bR, 3T3-IGF1R, and 3T3-IR. For analysis of DNA replication (measured as incorporation of BrdU) and cell cycle progression, 3T3-EGFR and 3T3-PDGF-bR cell lines were used. Cell growth studies were carried out on A431 (EGF-R+), BT474 (Her-2+), and C6 (PDGF-bR+) cell lines.

[3] = system: C6; assay: Cell growth (SRB), C6; assay type: cell-based
Procedure: (§2) In vitro functional studies.
(§3) After 4 days, cell density was measured by SRB staining. IC50 values were determined by regression analysis. For these experiments, cell lines whose growth is dependent on naturally-expressed RTK were examined.

[4] = system: BT474; assay: Cell growth (SRB), BT474; assay type: cell-based; conditions: Homo sapiens, BT-474, 96 h; RTK Her-2, 4 day incubation
Procedure: as §2, §3

[5] = in vitro; assay type: in vitro ADME, human
Procedure: . […] . Thus, biologically relevant concentrations of the drug penetrated the skin and reached the target tissue (epidermis) within 24 hours of application.
. The area of the cadaver skin used was 1.77 cm^2. The calculated volume using this assumption is 17.7 μL. Molar concentration was calculated from the microgram recovery in the epidermis.

[6] = system: 3T3-EGFR cells; assay: EGF-driven DNA replication (BrdU incorporation); assay type: cell-based; conditions: Mus musculus, 20 hours
Procedure: as §1

[7] = system: psoriatic human keratinocytes; assay: Growth of psoriatic human keratinocytes; assay type: cell-based
Description: (§4) Cells and Cell Culture. All tumor cell lines were obtained from the American Type Culture Collection (Rockville, Md.), unless otherwise specified. NIH3T3 mouse fibroblasts overexpressing the EGF receptor, IGF-1 receptor, insulin receptor, PDGF-b receptor, or a chimera of the EGF receptor extracellular domain fused to the Her-2 cytoplasmic domain were engineered using retroviral vectors. These cells will be referred to as 3T3-EGFR, 3T3-IGF1R, 3T3-IR, 3T3-PDGF-bR, and 3T3-EGFR/Her-2, respectively. All cell culture media and supplements were purchased from Gibco Life Technologies (Grand Island, N.Y.) unless otherwise specified. […] Cell lines were maintained under standard conditions in culture media recommended by the ATCC, unless otherwise specified. 3T3-EGFR, 3T3-PDGF-bR, and 3T3-EGFR/Her-2 cells were maintained in DMEM containing 10% calf serum (CS) and 2 mM GLN. 3T3-IGF1R and 3T3-IR cells were maintained in DMEM containing 10% FBS and 2 mM GLN. Keratinocytes were obtained from small biopsy specimens of split-thicknessskin from patients with psoriasis and from healthy control donors.
as §1

[8] = Plasma concentration after single IP dose; assay type: in vivo; conditions: mouse
Procedure: **Single dose (50 mg/kg), IP, in BALB/c, nu/nu, female mice.

[9] = in vivo; conditions: mouse, in vivo
[10] = molecular target: T1, IGF-1R (Homo sapiens, UniProt P08069); assay: IGF-1-stimulated receptor phosphorylation ELISA, 3T3-IGF1R; assay type: cell-based
T1 construct: expressed in transfected cells; host or cells: NIH3T3 mouse fibroblasts, retroviral vector (3T3-IGF1R)
T1 sequence (P08069 741-1367 limits assumed, species assumed): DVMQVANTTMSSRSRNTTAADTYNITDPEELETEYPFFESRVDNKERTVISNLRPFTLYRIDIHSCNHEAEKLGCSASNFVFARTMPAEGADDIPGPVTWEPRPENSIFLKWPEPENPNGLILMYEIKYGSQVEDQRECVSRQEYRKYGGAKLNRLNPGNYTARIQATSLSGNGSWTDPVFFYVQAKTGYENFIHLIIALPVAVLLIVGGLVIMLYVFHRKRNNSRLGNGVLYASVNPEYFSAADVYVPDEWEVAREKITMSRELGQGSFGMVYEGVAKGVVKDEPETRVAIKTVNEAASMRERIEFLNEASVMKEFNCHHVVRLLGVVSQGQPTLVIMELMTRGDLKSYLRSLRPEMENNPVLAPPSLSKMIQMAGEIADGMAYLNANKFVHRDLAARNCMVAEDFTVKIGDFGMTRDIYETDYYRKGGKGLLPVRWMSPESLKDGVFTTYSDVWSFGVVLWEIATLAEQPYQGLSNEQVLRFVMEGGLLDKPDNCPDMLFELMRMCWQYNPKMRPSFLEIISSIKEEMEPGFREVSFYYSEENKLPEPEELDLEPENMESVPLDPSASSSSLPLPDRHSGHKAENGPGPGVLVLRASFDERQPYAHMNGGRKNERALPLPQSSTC
T1 sequence (P08069 31-736 partner limits assumed, species assumed): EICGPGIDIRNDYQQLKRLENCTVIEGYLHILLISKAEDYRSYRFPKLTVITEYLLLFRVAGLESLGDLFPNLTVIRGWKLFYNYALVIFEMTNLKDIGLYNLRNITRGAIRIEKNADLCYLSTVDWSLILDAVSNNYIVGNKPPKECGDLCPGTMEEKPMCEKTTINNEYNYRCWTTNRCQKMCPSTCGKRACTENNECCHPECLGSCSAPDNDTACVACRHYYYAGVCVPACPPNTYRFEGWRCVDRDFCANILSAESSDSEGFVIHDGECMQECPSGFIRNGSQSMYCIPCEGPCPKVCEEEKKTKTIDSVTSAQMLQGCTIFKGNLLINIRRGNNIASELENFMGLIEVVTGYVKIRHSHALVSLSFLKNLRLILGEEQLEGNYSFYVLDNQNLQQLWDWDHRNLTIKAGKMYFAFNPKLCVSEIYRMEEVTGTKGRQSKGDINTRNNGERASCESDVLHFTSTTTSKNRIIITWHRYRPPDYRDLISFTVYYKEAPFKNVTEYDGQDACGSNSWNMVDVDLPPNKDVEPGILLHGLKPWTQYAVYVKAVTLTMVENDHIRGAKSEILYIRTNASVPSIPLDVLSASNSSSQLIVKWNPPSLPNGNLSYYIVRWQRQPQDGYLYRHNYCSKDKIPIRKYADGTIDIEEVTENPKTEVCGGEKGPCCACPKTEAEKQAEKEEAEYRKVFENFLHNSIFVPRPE
Description: as §4, §1
Receptor phosphorylation was measured by ELISA. EGF-R/Her-2 denotes a chimeric receptor consisting of the extracellular (ligand-binding) domain of EGFR, and the transmembrane and cytoplasmic domains of Her-2.

[11] = Plasma levels of A1 after topical application in nu/nu mice
[12] = molecular target: T2, IR (Homo sapiens, UniProt P06213); assay: Insulin-stimulated receptor phosphorylation ELISA, 3T3-IR; assay type: cell-based
T2 construct: expressed in transfected cells; host or cells: NIH3T3 mouse fibroblasts, retroviral vector (3T3-IR)
T2 sequence (P06213 763-1382 limits assumed): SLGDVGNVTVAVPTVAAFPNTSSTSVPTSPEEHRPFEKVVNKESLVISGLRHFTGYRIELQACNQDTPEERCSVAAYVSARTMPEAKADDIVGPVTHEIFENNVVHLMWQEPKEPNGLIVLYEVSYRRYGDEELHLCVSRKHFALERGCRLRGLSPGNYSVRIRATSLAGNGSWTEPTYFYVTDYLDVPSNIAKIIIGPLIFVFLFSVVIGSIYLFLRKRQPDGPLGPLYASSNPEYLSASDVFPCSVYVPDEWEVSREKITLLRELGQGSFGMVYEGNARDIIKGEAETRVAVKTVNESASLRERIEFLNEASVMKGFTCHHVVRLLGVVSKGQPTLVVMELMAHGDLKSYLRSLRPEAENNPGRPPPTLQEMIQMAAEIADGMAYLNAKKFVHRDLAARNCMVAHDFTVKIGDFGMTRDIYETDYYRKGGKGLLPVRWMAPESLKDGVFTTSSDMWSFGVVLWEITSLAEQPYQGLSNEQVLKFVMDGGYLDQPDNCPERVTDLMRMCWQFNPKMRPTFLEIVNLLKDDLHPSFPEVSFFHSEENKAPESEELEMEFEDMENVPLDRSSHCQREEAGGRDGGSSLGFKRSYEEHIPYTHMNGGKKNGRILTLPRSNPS
T2 sequence (P06213 28-758 partner limits assumed): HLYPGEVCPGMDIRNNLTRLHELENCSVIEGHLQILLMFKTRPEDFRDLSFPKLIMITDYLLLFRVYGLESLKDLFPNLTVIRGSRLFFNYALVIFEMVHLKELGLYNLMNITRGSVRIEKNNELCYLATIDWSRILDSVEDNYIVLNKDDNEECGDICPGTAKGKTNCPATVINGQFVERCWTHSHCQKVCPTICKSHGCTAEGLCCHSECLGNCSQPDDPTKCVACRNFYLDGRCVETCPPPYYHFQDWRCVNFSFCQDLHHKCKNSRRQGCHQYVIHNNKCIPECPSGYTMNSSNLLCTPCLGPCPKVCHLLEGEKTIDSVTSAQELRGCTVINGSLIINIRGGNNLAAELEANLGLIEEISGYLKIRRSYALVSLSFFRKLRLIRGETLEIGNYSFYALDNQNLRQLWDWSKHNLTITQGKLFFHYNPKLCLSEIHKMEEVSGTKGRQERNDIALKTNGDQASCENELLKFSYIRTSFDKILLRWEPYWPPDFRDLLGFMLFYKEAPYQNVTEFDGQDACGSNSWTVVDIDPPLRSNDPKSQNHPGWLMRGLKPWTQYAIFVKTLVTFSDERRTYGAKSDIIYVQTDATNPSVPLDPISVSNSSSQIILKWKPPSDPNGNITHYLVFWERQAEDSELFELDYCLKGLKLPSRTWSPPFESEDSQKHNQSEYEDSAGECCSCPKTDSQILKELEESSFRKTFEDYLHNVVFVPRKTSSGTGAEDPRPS
Description: as §4
In vitro functional studies. […] For analysis of DNA replication (measured as incorporation of BrdU) and cell cycle progression, 3T3-EGFR and 3T3-PDGF-bR cell lines were used. […]
Receptor phosphorylation was measured by ELISA. […]

[13] = Excipient screening (visual solubility after 24 hrs)

SMILES: COc1cc2ncnc(Nc3cccc(Br)c3)c2cc1OC [A1, 4-(3-Bromophenylamino)-6,7-dimethoxyquinazoline]
- IC50 [1]: 0.075 µM
- IC50 [2]: 0.034 µM
- inhibition of PDGF-bR-dependent cell growth (in words) [3]: did not inhibit
- IC50 ([3]; Rattus norvegicus, C6, 96 h, RTK PDGF-bR, 4 day incubation): > 100 µM
- IC50 [4]: 0.9 µM
- skin penetration (in words) [5]: penetrated human cadaver skin, reaching biologically effective concentrations in the epidermis
- concentration at 24 h ([5]; human, topical or ocular, concentration in the epidermis after 24 hours): 141 to 355 µM
- IC50 [6]: 0.03 µM
- inhibition of psoriatic skin cell / keratinocyte proliferation in vitro (in words) [7]: capable of inhibiting
- IC99 ([7]; Homo sapiens, Keratinocyte, 120 h, read-out: IC99, inhibition of psoriatic keratinocyte proliferation): ~14 µM
- IC50 ([7]; Homo sapiens, Keratinocyte, read-out: IC50, growth of psoriatic keratinocytes): < 1 µM
- plasma half-life (in words) ([8]; in vivo): short plasma half-life
- concentration at 5 min ([8]; plasma, single dose 50 mg/kg IP, BALB/c nu/nu female mice, 5 min): 17.9 ± 4.3 µg/mL
- concentration at […] ([8]; plasma, single dose 50 mg/kg IP, BALB/c nu/nu female mice, 15 min): 6.3 ± 3.7 µg/mL
- concentration at 1 h ([8]; plasma, single dose 50 mg/kg IP, BALB/c nu/nu female mice, 60 min): 2 ± 0.9 µg/mL
- toxicity (in words) [9]: low toxicity
- activity against insulin-like growth factor-1 receptor (in words) [10]: little or no activity
- inhibition of receptor phosphorylation, IGF-1R ([10]; concentrations up to 100 μM): not inhibited
- IC50 ([10]; ligand IGF-1, 2 hr pretreatment): > 100 µM
- concentration at 0.5 h ([11]; mouse, plasma, topical or ocular): < 2 µg/mL
- discomfort or increased grooming behavior ([11]; topical 2% ointment, nu/nu mice): no discomfort or increased grooming behavior
- inhibition of receptor phosphorylation, IR ([12]; concentrations up to 100 μM): not inhibited
- IC50 ([12]; ligand Insulin, 2 hr pretreatment): > 100 µM
- Solubility After 24 Hrs. ([13]; 1.0 N HCl): Insoluble/Yellow
- Solubility After 24 Hrs. ([13]; Benzyl Alcohol): Soluble
- Solubility After 24 Hrs. ([13]; Conc. NaOH): Insoluble
- Solubility After 24 Hrs. ([13]; Distilled H2O): Insoluble
- Solubility After 24 Hrs. ([13]; EtOH/Poly-80 50:50, [Drug] 10 mg/mL): Slightly Soluble
- Solubility After 24 Hrs. ([13]; Ethanol): Partially Soluble
- Solubility After 24 Hrs. ([13]; Isopropyl Myristate): Insoluble/Cloudy
- Solubility After 24 Hrs. ([13]; Oleic Acid): Insoluble/Yellow/Cloudy
- Solubility After 24 Hrs. ([13]; PEG-300): Soluble
- Solubility After 24 Hrs. ([13]; Polysorbate-80, [Drug] 10 mg/mL): Slightly Soluble
- Solubility After 24 Hrs. ([13]; Propylene Carbonate): Soluble/80C/10 min.
- Solubility After 24 Hrs. ([13]; Propylene Glycol): Slightly Soluble/Clear/
- Solubility After 24 Hrs. ([13]; Triacetin): Partially Soluble
